Measurements as given in US20210147455A1 (SHAANXI SYNTHETIC PHARMACEUTICAL CO., LTD., priority 2018, published 2021).

Key:
[1] = Hygroscopicity study (Chinese Pharmacopoeia 2015, 9103); format: physicochemical; conditions: for Hygroscopic weight gain: 25° C.±1° C., saturated ammonium chloride solution, 24 hours; for Conclusion (hygroscopicity): after 24 hours
Protocol: Test method: • 1. A dried glass weighing bottle with stopper (having an outer diameter of 50 mm and a height of 15 mm) was placed in a thermostatic drier (a saturated ammonium chloride solution was placed on the lower part of the thermostatic drier) at an appropriate temperature of 25° C.±1° C. on the day earlier before the test, and the weight (m1) of weighing bottle was precisely weighed. • 2. An appropriate amount of test sample was taken and spread in the weighing bottle, and the thickness of the test sample was controlled to about 1 mm, and the weight (m2) was precisely weighed. • 3. The weighing bottle was opened and was placed, together with the bottle cap, under the above mentioned constant temperature and humidity condition for 24 hours. • 4. The weighing bottle was capped and precisely weighed to obtain the weight (m3).
Description of hygroscopicity characterization and delimitation of hygroscopicity weight gain: Deliquescence: enough moisture is absorbed to form a liquid. […] Slightly hygroscopic: hygroscopic weight gain is less than 2% but not less than 0.2%. Not or hardly hygroscopic: hygroscopic weight gain is less than 0.2%.

[2] = Stability experiments under 25° C.±2° C. and 65% R.H±5% R.H; conditions: 25° C./65% R.H
Description: • 1. […] The results are shown in detail in the following table.

[3] = Stability experiments under 40° C.±2° C. and 75% R.H±5% R.H (accelerated test); format: physicochemical; conditions: 40° C./75% R.H

Row | Compound | Hygroscopic weight gain [1] | Content ([2]; month 0) | Description ([2]; month 0) | Related substance ([2]; month 0) | Content ([2]; month 3) | Content ([3]; month 0) | Description ([3]; month 0) | Related substance ([3]; month 0) | Content ([3]; month 1) | Description ([3]; month 1) | Related substance ([3]; month 1) | Content ([3]; month 2) | Description ([3]; month 2) | Related substance ([3]; month 2) | Content ([3]; month 3) | Description ([3]; month 3) | Related substance ([3]; month 3) | Content ([3]; month 6) | Description ([3]; month 6) | Related substance ([3]; month 6) | also measured
1 | CC[C@@H]([C@H](C)OP(=O)([O-])[O-])n1ncn(-c2ccc(N3CCN(c4ccc(OC[C@@H]5CO[C@@](Cn6cncn6)(c6ccc(F)cc6F)C5)cc4)CC3)cc2)c1=O.C[N+](C)(C)CCO.C[N+](C)(C)CCO [Comparative Example 1, Posaconazole Phosphate Bicholinate] | 8.76% | 99.87% | White | 0.13% | 99.86% | 99.87% | White | 0.13% | 99.86% | White | 0.14% | 99.84% | White | 0.16% | 99.80% | White | 0.20% | 99.65% | White | 0.35% | Description ([2]; month 3): White; Related substance ([2]; month 3): 0.14%; Content ([2]; month 6): 99.81%; Description ([2]; month 6): White; Related substance ([2]; month 6): 0.19%; Content ([2]; month 9): 99.77%; Description ([2]; month 9): White; Related substance ([2]; month 9): 0.23%; Content ([2]; month 12): 99.61%; Description ([2]; month 12): White; Related substance ([2]; month 12): 0.31%; Content ([2]; month 24): 99.22%; Description ([2]; month 24): White; Related substance ([2]; month 24): 0.78%
2 | CCC(C(C)OP(=O)([O-])[O-])n1ncn(-c2ccc(N3CCN(c4ccc(OCC5COC(Cn6cncn6)(c6ccc(F)cc6F)C5)cc4)CC3)cc2)c1=O.C[N+](C)(C)CCO.C[N+](C)(C)CCO.O.O.O.O.O (centres unmarked) [Comparative Example 2, Posaconazole Phosphate Bicholinate Pentahydrate] | 11.81% | 99.87% | White | 0.13% | 99.86% | 99.87% | White | 0.13% | 99.86% | White | 0.14% | 99.85% | White | 0.16% | 99.79% | White | 0.21% | 99.64% | White | 0.36% | Description ([2]; month 3): White; Related substance ([2]; month 3): 0.14%; Content ([2]; month 6): 99.81%; Description ([2]; month 6): White; Related substance ([2]; month 6): 0.19%; Content ([2]; month 9): 99.75%; Description ([2]; month 9): White; Related substance ([2]; month 9): 0.25%; Content ([2]; month 12): 99.71%; Description ([2]; month 12): White; Related substance ([2]; month 12): 0.29%; Content ([2]; month 24): 99.18%; Description ([2]; month 24): White; Related substance ([2]; month 24): 0.82%
3 | CC[C@@H]([C@H](C)OP(=O)(O)O)n1ncn(-c2ccc(N3CCN(c4ccc(OC[C@@H]5CO[C@@](Cn6cncn6)(c6ccc(F)cc6F)C5)cc4)CC3)cc2)c1=O.CNC[C@H](O)[C@@H](O)[C@H](O)[C@H](O)CO [Comparative Example 4, Posaconazole Phosphate Monomeglumine Salt] | 0.88% | 99.87% | White | 0.13% | 99.81% | 99.87% | White | 0.13% | 99.73% | White | 0.27% | 99.62% | White | 0.38% | 99.50% | White | 0.50% | 99.36% | White | 0.64% | Conclusion (hygroscopicity) [1]: Slight hygroscopicity; Description ([2]; month 3): White; Related substance ([2]; month 3): 0.19%; Content ([2]; month 6): 99.69%; Description ([2]; month 6): White; Related substance ([2]; month 6): 0.31%; Content ([2]; month 9): 99.57%; Description ([2]; month 9): White; Related substance ([2]; month 9): 0.43%; Content ([2]; month 12): 99.50%; Description ([2]; month 12): White; Related substance ([2]; month 12): 0.50%; Content ([2]; month 24): 98.98%; Description ([2]; month 24): White; Related substance ([2]; month 24): 1.02%
4 | CC[C@@H]([C@H](C)OP(=O)(O)O)n1ncn(-c2ccc(N3CCN(c4ccc(OC[C@@H]5CO[C@@](Cn6cncn6)(c6ccc(F)cc6F)C5)cc4)CC3)cc2)c1=O.N=C(N)NCCC[C@H](N)C(=O)O [Comparative Example 5, Posaconazole Phosphate Monoarginine Salt] | 1.02% | 99.87% | White | 0.13% | 99.79% | 99.87% | White | 0.13% | 99.72% | White | 0.28% | 99.60% | White | 0.40% | 99.50% | White | 0.50% | 99.37% | White | 0.63% | Conclusion (hygroscopicity) [1]: Slight hygroscopicity; Description ([2]; month 3): White; Related substance ([2]; month 3): 0.21%; Content ([2]; month 6): 99.71%; Description ([2]; month 6): White; Related substance ([2]; month 6): 0.29%; Content ([2]; month 9): 99.58%; Description ([2]; month 9): White; Related substance ([2]; month 9): 0.42%; Content ([2]; month 12): 99.49%; Description ([2]; month 12): White; Related substance ([2]; month 12): 0.51%; Content ([2]; month 24): 99.03%; Description ([2]; month 24): White; Related substance ([2]; month 24): 0.97%
5 | Posaconazole Phosphate Monosodium Salt [Comparative Example 8] | 1.92% |  |  |  |  | 99.87% | White | 0.13% | 99.71% | White | 0.29% | 99,63% | White | 0.37% | 99.47% | White | 0.53% | 99.32% | White | 0.68% | Conclusion (hygroscopicity) [1]: Slight hygroscopicity
